Experimental data reported in patent US20210352895A1, “SYNERGISTIC PESTICIDAL COMPOSITIONS AND METHODS FOR DELIVERY OF ACTIVE INGREDIENTS” (0903608 B.C. Ltd., priority 2018, published 2021).
Values joined by “and” are separate entries in the source; they are usually repeats but may differ in a detail not shown here. Equal entries are not always repeated. Where two headings read alike, the source gives them in different places.

Key:
Trichoplusia ni [1] = assay: In-planta insecticidal efficacy of Pylon (chlorfenapyr) with unsaturated aliphatic acids on sprayed green cabbage plants, Colby synergy factor; format: in vivo, Trichoplusia ni (cabbage looper); conditions: 0.06 mg/mL aliphatic acid (salt)
Protocol: A stock solution for the potassium salt of (2E,4E)-2,4-hexadienoic acid was prepared by dissolving the salt in water to form a 20 mg/mL (20,000 ppm) solution. […] Each experiment was repeated at least 3 times.
(§1) While for SF<1, antagonism is present and for SF=1, the efficacy of the compounds is merely additive.

Trichoplusia ni [2] = assay: In-vitro insecticidal efficacy of Pylon (chlorfenapyr) with unsaturated aliphatic acids in artificial diet, Colby synergy factor; format: in vivo, Trichoplusia ni (cabbage looper)
Protocol: A stock solution was prepared for each of trans-2-hexenoic acid and trans-3-hexenoic acid (both available from Sigma-Aldrich, St. Louis, Mo., USA), by dissolving each exemplary unsaturated aliphatic acid in 100% dimethylsulfoxide (DMSO) at a concentration of 20 mg/mL (20,000 ppm). A stock solution for the potassium salt of (2E,4E)-2,4-hexadienoic acid was prepared by dissolving the salt in water to form a 20 mg/mL (20,000 ppm) solution.
An artificial diet suitable for Trichoplusia ni (cabbage looper caterpillar) was prepared according to the modified McMorran artificial diet recipe known in the entomology field (containing agar, casein, potassium hydroxide, alphacel, Wesson's salt mix, sugar, toasted wheat germ, choline chloride, ascorbic acid, methyl paraben, aureomycin, linseed oil and vitamin solution).
The treated artificial diet was then used to fill each well of a 24-well treatment plate with approximately 0.5 mL of artificial diet, which was allowed to solidify at room temperature and stored overnight at approximately 4 C. […] Each experiment contained 3 replicates, and was repeated at least 3 times.
as §1

Alternaria solani = assay: Synergistic Growth Inhibition Assay (MIC / FIC index) on Alternaria solani; format: cell-based; conditions: Alternaria solani; for MIC: 7 days incubation
Protocol: (§2) In some embodiments, the synergistic action between the pesticidal active ingredient, and the at least one C4-C10 (or alternatively C11 or C12) saturated or unsaturated aliphatic acid components of the pesticidal compositions according to embodiments of the present disclosure was tested using a Synergistic Growth Inhibition Assay, which is derived from and related to a checkerboard assay as is known in the art for testing of combinations of antimicrobial agents. In the Synergistic Growth Inhibition Assay used in accordance with some embodiments of the present disclosure, multiple dilutions of combinations of pesticidal active ingredient and at least one C4-C10 saturated or unsaturated aliphatic acid agents are tested in individual cells for inhibitory activity against a target pest or pathogenic organism. In one such embodiment, the combinations of pesticidal active ingredient and C4-C10 (or alternatively C11 or C12) saturated or unsaturated aliphatic acid agents may preferably be tested in decreasing concentrations. In a further such embodiment, the combinations of pesticidal active ingredient and C4-C10 (or alternatively C11 or C12) saturated or unsaturated aliphatic acid agents may be tested in increasing concentrations. These multiple combinations of the pesticidal active ingredient and at least one C4-C10 (or alternatively C11 or C12) saturated or unsaturated aliphatic acid agents may be prepared in 96-well microtiter plates. In one such embodiment, the Synergistic Growth Inhibition Assay then comprises rows which each contain progressively decreasing concentrations of the pesticidal active ingredient and one or more C4-C10 (or alternatively C11 or C12) saturated or unsaturated aliphatic acid agents to test for the MIC of the agents in combination at which growth of the target pest or pathogen is inhibited. Thus, each well of the microtiter plate is a unique combination of the two agents, at which inhibitory efficacy of the combination against the target pest or pathogen can be determined.
(§3) In one embodiment according to the present disclosure, for each row of microtiter cells in the Synergistic Growth Inhibition Assay, the FIC index is calculated from the lowest concentration of the pesticidal active ingredient and one or more C4-C10 saturated or unsaturated aliphatic acid agents necessary to inhibit growth of a target pest or pathogen. The FIC of each component is derived by dividing the concentration of the agent present in that well of the microtiter plate by the minimal inhibitory concentration (MIC) needed of that agent alone to inhibit growth of the target pest or pathogen. The FIC index is then the sum of these values for both agents in that well of the microtiter plate. The FIC index is calculated for each row as follows:
(§4) FICindex=MICa/MICA+MICb/MICB
(§5) Fractional inhibitory concentration indices may then used as measure of synergy. […] When the FIC index is equal to 1, the combination is additive.
(§6) Then, serial dilutions of these initial compositions in successive wells in the row of the microtiter plate were used to assay the pesticidal composition under the same conditions to determine the concentration of the composition combining the two agents corresponding to the microtiter well in which growth inhibition of the target pest or organism ceases.
Alternatively, other suitable representative pest or pathogen organisms may be used to determine synergy of combinations of pesticidal active ingredient agents and one or more C4-C10 (or alternatively C11 or C12) saturated or unsaturated aliphatic acid agents in accordance with embodiments of the present disclosure. For example, other representative fungal pathogens may be used, such as but not limited to Leptosphaeria maculans, Sclerotinia spp. and Verticillium spp.

Botrytis cinerea = assay: Synergistic Growth Inhibition Assay (MIC / FIC index, resazurin, 96-well) on Botrytis cinerea; format: cell-based; conditions: for MIC: 48 h, Compound B alone, read-out: MIC (B)
Protocol: as §2, §3, §4, §5, §6
Similarly to as described above, Resazurin was used as an indicator of growth or inhibition of growth of Botrytis cinerea in the exemplary Synergistic Growth Inhibition Assay. In addition to the color change of the resazurin, an optical or visual examination of the microtiter well may also be made to additionally determine the presence of growth or inhibition of growth of the Botrytis cinerea.

Sclerotinia sclerotiorum = assay: Synergistic Growth Inhibition Assay (MIC / FIC index, resazurin, 96-well) on Sclerotinia sclerotiorum; format: cell-based; conditions: for MIC (A): Compound A alone
Protocol: as §2, §3, §4, §5, §6
Similarly to as described above, Resazurin was used as an indicator of growth or inhibition of growth of Sclerotinia sclerotiorum in the exemplary Synergistic Growth Inhibition Assay. In addition to the color change of the resazurin, an optical or visual examination of the microtiter well may also be made to additionally determine the presence of growth or inhibition of growth of the Sclerotinia sclerotiorum.

Fusarium oxysporum = assay: Synergistic Growth Inhibition Assay (MIC / FIC index, resazurin, 96-well) on Fusarium oxysporum; format: cell-based; conditions: for MIC: 48 h, read-out: MIC (B), Compound B alone; for MIC (A): Compound A alone
Protocol: as §2, §3, §4, §5, §6
Resazurin dye (also known as Alamar blue dye) was used as an indicator to determine the presence of growth or inhibition of growth of Fusarium oxysporum in the wells of the 96 well microtiter plates used in the exemplary Synergistic Growth Inhibition Assay. In addition to the color change of the resazurin dye in the presence of growth of the Fusarium oxysporum, an optical or visual examination of the microtiter well may also be made to additionally determine the presence of growth or inhibition of growth of the Fusarium oxysporum.

[3] = Solubility / effective solubilized concentration in 10% DMSO/90% PDB by HPLC; conditions: DMSO stock diluted 10-fold in PDB; verified by HPLC
Protocol: This solution was diluted 10-fold in potato dextrose broth (PDB) to give a concentration of 0.05 mg/mL in 10% DMSO/90% PDB.

[4] = aliphatic acid (salt) 0.05 mg/mL
[5] = aliphatic acid (salt) 0.30 mg/mL
[6] = Compound A alone, Botrytis cinerea, incubation period of 48 hours

## CC=CC=CC(=O)[O-].[K+] [2,4-hexadienoic acid, K-salt]
Trichoplusia ni [1]; after 48 hours
  Observed Efficacy (%): 13%
Trichoplusia ni [1]; after 72 hours
  Observed Efficacy (%): 0%

## CC=CC=CC(=O)[O-].[K+] [2,4-hexenoic acid-Ksalt]
Trichoplusia ni [2]; [4]
  72 hr Obs. Efficacy: 4%
  90 hr Obs. Efficacy: 4%
  120 hr Obs. Efficacy: 4%
Trichoplusia ni [2]; [5]
  72 hr Obs. Efficacy: 13%
  90 hr Obs. Efficacy: 13%
  120 hr Obs. Efficacy: 4%

## CCCCC(CC)C(=O)O (stereo not shown) [2-ethylhexanoic acid]
Alternaria solani; Compound B alone, read-out: MIC (B)
  MIC: 312 µg/mL
Botrytis cinerea; Botrytis cinerea, Botrytis cinerea, 48 hours incubation
  MIC: 312 µg/mL
Botrytis cinerea; Botrytis cinerea, Botrytis cinerea, incubation period of 48 hours
  MIC: 312 µg/mL
Sclerotinia sclerotiorum; Sclerotinia sclerotiorum, Compound B alone, Sclerotinia sclerotiorum, incubation period of 7 days, read-out: MIC (B)
  MIC: 625 µg/mL

## O=C(O)CCCCCCCO [8-hydroxyoctanoic acid]
Fusarium oxysporum; Fusarium oxysporum, Fusarium oxysporum, 48 hours incubation
  MIC: 5000 µg/mL
Fusarium oxysporum; Fusarium oxysporum, Fusarium oxysporum, incubation period of 48 hours
  MIC: 5000 µg/mL
Alternaria solani; read-out: MIC (B), Compound B alone
  MIC: 2500 µg/mL
Sclerotinia sclerotiorum; Sclerotinia sclerotiorum, read-out: MIC (B), Compound B alone, Sclerotinia sclerotiorum, 7 days incubation
  MIC: 2500 µg/mL
Sclerotinia sclerotiorum; Sclerotinia sclerotiorum, read-out: MIC (B), Compound B alone, Sclerotinia sclerotiorum, incubation period of 7 days
  MIC: 5000 µg/mL

## CO/C=C(/C(=O)OC)c1ccccc1Oc1cc(Oc2ccccc2C#N)ncn1 [Azoxystrobin, reference compound]
Fusarium oxysporum; 48 hours incubation
  MIC (A): 75 µg/mL and 150 µg/mL
Fusarium oxysporum; Fusarium oxysporum, 2-fold dilutions, incubation period of 48 hours
  MIC (A): 150 µg/mL
Fusarium oxysporum; Fusarium oxysporum, incubation period of 48 hours
  MIC (A): 150 µg/mL
Botrytis cinerea; Compound A alone, 48 hours incubation
  MIC (A): 37.5 µg/mL and 75 µg/mL
Botrytis cinerea; Compound A alone, Botrytis cinerea, incubation period of 2 days
  MIC (A): 150 µg/mL
Botrytis cinerea; [6]
  MIC (A): 150 µg/mL
Botrytis cinerea; Table 45, Compound A = azoxystrobin, alone or in combination with Compound B, 48 hours incubation
  MIC (A): 75 µg/mL
Sclerotinia sclerotiorum; 7 days incubation
  MIC (A): 150 µg/mL and 75 µg/mL
Sclerotinia sclerotiorum; Sclerotinia sclerotiorum, 2-fold dilutions, incubation period of 7 days
  MIC (A): 150 µg/mL
Sclerotinia sclerotiorum; Sclerotinia sclerotiorum, incubation period of 7 days
  MIC (A): 150 µg/mL
[3]
  effective solubilized concentration of working stock solution: 0.15 mg/mL

## CO/C=C(/C(=O)OC)c1ccccc1COc1cccc(C(F)(F)F)n1 [Picoxystrobin, reference compound]
Alternaria solani; Compound A alone, incubation period of 7 days
  MIC (A): 500 µg/mL
Botrytis cinerea; [6]
  MIC (A): 250 µg/mL
Sclerotinia sclerotiorum; 7 days incubation
  MIC (A): 500 µg/mL
